Test results published in article PMC7395068, “The evolution of strategies to minimise the risk of human drug-induced liver injury (DILI) in drug discovery and development” (Archives of Toxicology, 2020).
Read-outs that look alike come from different tables or passages of the source.

Legend:
[1] = ref Chen 2011; cited from earlier work
human hepatocytes = conditions: In vitro Assay; ref Xu 2008; cited from earlier work
[2] = cited from earlier work
[3] = plasma free fraction; cited from earlier work
[4] = system: isolated mouse liver mitochondria; conditions: In vitro Assay; ref Porceddu 2012; cited from earlier work
hLiMTs [5] = conditions: cited from earlier work
[6] = cited from earlier work; remark: listed apart in the source
HepaRG spheroids = experiment: Combined HCI (HCS) and cellular ATP 3D assay in HepaRG spheroids; conditions: for AC50 / minimal effective concentration: Homo sapiens
HepG2 cells [7] = conditions: cited from earlier work
rBsep = conditions: In vitro Assay; ref Dawson 2012; cited from earlier work
Upcyte human hepatocytes = conditions: In vitro Assay; ref Tolosa 2019; cited from earlier work
hLiMTs [8] = experiment: Combined HCI (HCS) and cellular ATP 3D assay in hLiMTs; conditions: for AC50 / minimal effective concentration: Homo sapiens
HepG2 cells [9] = conditions: In vitro Assay; ref O'Brien 2006; cited from earlier work
[10] = system: primary human hepatocytes, NIH3T3 fibroblasts, BSEP, CYP3A4; conditions: cited from earlier work
[11] = system: HepG2 cells, primary human hepatocytes; conditions: In vitro Assay; ref Garside 2014; cited from earlier work
[12] = system: HepG2 C3A spheroid, BSEP, Glu/Gal in HepG2 cells, bioactivation; conditions: cited from earlier work
[13] = Plasma free fraction (fu) and unbound Cmax (Cmax,u); format: in vitro ADME, human; conditions: unbound plasma Cmax
Procedure: The prediction of DILI severity was evaluated further using the 3D combined HCI assays using plasma-free fraction. The majority of fu values were obtained from literature, when unavailable in-house prediction was utilised. Unbound plasma Cmax concentrations (Cmax,u) were derived by multiplying total plasma Cmax with the corresponding free fraction (fu) for each compound.

[14] = cited from earlier work; remark: listed apart in the source
HepG2 cells [15] = conditions: cited from earlier work; remark: listed apart in the source
[16] = system: THLE-Null and THLE-3A4 cells; conditions: In vitro Assay; ref Gustafsson 2014; cited from earlier work
PHH spheroids = conditions: cited from earlier work
PHH = conditions: cited from earlier work
[17] = system: THLE or HepG2 cells, isolated mitochondria, BSEP; conditions: cited from earlier work
[18] = In vitro Assay, ref Proctor 2017
[19] = Microtissue model structural based (HCI), combined HCS and ATP, MEC < 25 × Cmax.tot cut-off
[20] = In vitro Assay, ref Persson 2013
[21] = In vitro Assay, ref Schadt 2015
[22] = Modeled in vitro assays (cytotoxicity, mitochondrial dysfunction, BSEP), ref Aleo et al. 2019

SMILES: CC(C)C(=O)Nc1ccc([N+](=O)[O-])c(C(F)(F)F)c1 [flutamide, reference compound]
- DILI Score (FDA) (1-8) [1]: 8
- Structural based (HCI) (human hepatocytes): -VE
- DILI severity category (Chen et al. [2016]) ([2]; LTKB DILIrank category, ref Chen et al. 2016): Most
- DILI severity category (Chen 2016) ([2]; human DILI classification, LTKB DILIrank, ref Chen et al. 2016): Most
- DILI severity category ([2]; human DILI severity, ref Chen et al.): Most
- DILI +VE (5-8), DILI -VE (-4) ([2]; ref Chen 2016): +VE
- DILI severity category ([2]; ref Chen 2016): vMost-DILI-Concern
- fu [3]: 0.050
- in vitro data EC2<=1x Cmax [4]: +VE
- in vitro data EC20<=2uM [4]: -VE
- hLiMTs ATP <100uM (hLiMTs [5]; [18]): +VE (IC50 threshold of 100 µM)
- hLiMTs/100xCmax, Proctor (2017) (hLiMTs [5]; hLiMTs, ATP, IC50 < 100 × Cmax.tot, ref Proctor et al. 2017): +VE (IC50 < 100 × Cmax.tot)
- hLiMTs/100uM, Proctor (2017) (hLiMTs [5]; hLiMTs, ATP, IC50 threshold 100 µM, ref Proctor et al. 2017): +VE (IC50 threshold of 100 µM)
- Assigned DILI category ([6]; Chen et al. 2016 or literature alignment, ref Chen et al. 2016): 3
- In vivo DILI ([6]; […]): +VE
- In vivo DILI ([6]; ref Aleo 2019): +VE
- In vivo DILI ([6]; ref Dawson 2012): +VE
- In vivo DILI ([6]; ref Garside 2014): +VE
- In vivo DILI ([6]; ref Gustafsson 2014): +VE
- In vivo DILI ([6]; ref O'Brien 2006): +VE
- In vivo DILI ([6]; ref Persson 2013): +VE
- In vivo DILI ([6]; ref Porceddu 2012): -VE
- In vivo DILI ([6]; ref Proctor 2017): +VE
- In vivo DILI ([6]; ref Schadt 2015): +VE
- In vivo DILI ([6]; ref Tolosa 2012): +VE
- In vivo DILI ([6]; ref Tolosa 2019): +VE
- In vivo DILI ([6]; ref Vorrink 2018): +VE
- In vivo DILI ([6]; ref Williams 2019): +VE
- In vivo DILI ([6]; ref Xu 2008): +VE
- HepaRG <25x Avg Cmax ATP (HepaRG spheroids; HepaRG, ATP endpoint, cut-off <25x Avg Cmax): +ve
- HepaRG <100x Avg Cmaxu ATP (HepaRG spheroids; HepaRG, ATP endpoint, cut-off <100x Avg Cmaxu): +ve (<100x Avg Cmaxu)
- HepaRG <25x Avg Cmax HCS (HepaRG spheroids; HepaRG, HCS endpoints, cut-off <25x Avg Cmax): +ve
- HepaRG <100x Avg Cmaxu HCS (HepaRG spheroids; HepaRG, HCS endpoints, cut-off <100x Avg Cmaxu): +ve (<100x Avg Cmaxu)
- HepaRG <25x Avg Cmax All (HepaRG spheroids; HepaRG, all endpoints (ATP and HCS), cut-off <25x Avg Cmax): +ve
- HepaRG Cmax max All (HepaRG spheroids; HepaRG, all endpoints, Cmax max used): +ve
- HepaRG Cmax min All (HepaRG spheroids; HepaRG, all endpoints, Cmax min used): +ve
- HepaRG <10 uM All (HepaRG spheroids; HepaRG, all endpoints, cut-off <10 uM): +ve (<10 uM)
- HepaRG <100x Avg Cmaxu All (HepaRG spheroids; HepaRG, all endpoints, cut-off <100x Avg Cmaxu): +ve (<100x Avg Cmaxu)
- AC50 (HepaRG spheroids; HepaRG, read-out: ATP endpoint AC50): 14.9 µM
- minimal effective concentration (HepaRG spheroids; HepaRG, read-out: ATP endpoint MEC): 7.75 µM
- AC50 (HepaRG spheroids; HepaRG, read-out: HCS endpoint AC50): 42.7 µM
- minimal effective concentration (HepaRG spheroids; HepaRG, read-out: HCS endpoint MEC): 13.9 µM
- DILI prediction HepaRG spheroids (HCS-MEC) (HepaRG spheroids; [19]): +VE (MEC < 25 × Cmax.tot cut-off)
- Cluser analysis (HepG2 cells [7]; [20]): -VE
- Structural based (HCI) (HepG2 cells [7]; [20]): -VE
- DILI in vitro assay prediction, Persson (2013) (HepG2 cells [7]; Structural based (HCI), HepG2, ref Persson et al. 2013): -VE
- Inhibition of rBsep cutoff<1& cmax u>.2 (rBsep): +VE
- Inhibition of rBsep cutoff<3 (rBsep): +VE
- Upcytes multi donor assay 14day data (Upcyte human hepatocytes): +VE
- AC50 (hLiMTs [8]; read-out: ATP endpoint AC50): 29.9 µM
- minimal effective concentration (hLiMTs [8]; read-out: ATP endpoint MEC): 18.5 µM
- AC50 (hLiMTs [8]; read-out: HCS endpoint AC50): 43.5 µM
- minimal effective concentration (hLiMTs [8]; read-out: HCS endpoint MEC): 3.63 µM
- DILI prediction hLiMTs (HCS-MEC) (hLiMTs [8]; [19]): +VE (MEC < 25 × Cmax.tot cut-off)
- hLiMTs <25x Avg Cmax ATP (hLiMTs [8]; hLiMTs, ATP endpoint, cut-off <25x Avg Cmax): +ve
- hLiMTs <100x Avg Cmaxu ATP (hLiMTs [8]; hLiMTs, ATP endpoint, cut-off <100x Avg Cmaxu): +ve (<100x Avg Cmaxu)
- hLiMTs <25x Avg Cmax HCS (hLiMTs [8]; hLiMTs, HCS endpoints, cut-off <25x Avg Cmax): +ve
- hLiMTs <100x Avg Cmaxu HCS (hLiMTs [8]; hLiMTs, HCS endpoints, cut-off <100x Avg Cmaxu): +ve (<100x Avg Cmaxu)
- hLiMTs <25x Avg Cmax All (hLiMTs [8]; hLiMTs, all endpoints (ATP and HCS), cut-off <25x Avg Cmax): +ve
- hLiMTs Cmax max All (hLiMTs [8]; hLiMTs, all endpoints, Cmax max used): +ve
- hLiMTs Cmax min All (hLiMTs [8]; hLiMTs, all endpoints, Cmax min used): +ve
- hLiMTs <10 uM All (hLiMTs [8]; hLiMTs, all endpoints, cut-off <10 uM): +ve (<10 uM)
- hLiMTs <100x Avg Cmaxu All (hLiMTs [8]; hLiMTs, all endpoints, cut-off <100x Avg Cmaxu): +ve (<100x Avg Cmaxu)
- Structural based (HCI) (HepG2 cells [9]): +VE
- DILI in vitro assay prediction, Schadt (2015) ([10]; BSEP & Metabolism based, ref Schadt et al. 2015): +VE
- Cellular toxicity (3T3 cells) [10, 21]: -VE
- Combined Assay [10, 21]: +VE
- GSH adduct HML [10, 21]: +VE
- Hepatocyte cellular toxicity [10, 21]: -VE
- MitoTox 3T3 [10, 21]: +VE
- TDI CYP3A4 [10, 21]: -VE
- hBSEP inhibition [10, 21]: -VE
- Cluster 1-6 +VE Assay [11]: +VE
- Bayesian Machine Learning DILI prediction, Williams (2019) ([12]; Bayesian modeling, ref Williams et al. 2019): +VE
- Bayesian Machine Learning ([12]; In vitro Assay, ref Williams 2019): +VE
- Human plasma Cmax,u [13]: 0.272 µM
- Cmax ([14]; read-out: Cmax.tot, value used for normalisation, ref O'Brien et al. 2006): 6 µM
- Cmax ([14]; read-out: Cmax.tot, value used for normalisation, ref Xu et al. 2008): 0.36 µM
- Cmax ([14]; read-out: Human plasma Cmax, total plasma Cmax.tot, median of 9 literature references): 5.43 µM
- Structural based (HCI) (HepG2 cells [15]; In vitro Assay, ref Tolosa 2012): +VE
- DILI in vitro assay prediction, Tolosa (2012) (HepG2 cells [15]; Structural based (HCI), HepG2, ref Tolosa et al. 2012): +VE
- THLE-Null [16]: -VE
- THLE-Null/3A4 [16]: -VE
- hLiMTs ATP <20 x Cmax (PHH spheroids; In vitro Assay, ref Vorrink 2018): +VE (IC20 < 20 × Cmax.tot cut-off)
- DILI in vitro assay prediction, Vorrink (2018) (PHH spheroids; PHH spheroids, ATP, 14 days, IC20 < 20 × Cmax.tot, ref Vorrink et al. 2018): +VE (IC20 < 20 × Cmax.tot cut-off)
- PHH/100xCmax, Proctor (2017) (PHH; 2D PHH, ATP, IC50 < 100 × Cmax.tot, ref Proctor et al. 2017): +VE (IC50 < 100 × Cmax.tot)
- PHH/100uM, Proctor (2017) (PHH; 2D PHH, ATP, IC50 threshold 100 µM, ref Proctor et al. 2017): +VE (IC50 threshold of 100 µM)
- PHH ATP <100uM (PHH; [18]): +VE (IC50 threshold of 100 µM)
- Partition Hybrid HRM Score ([17]; In vitro Assay, ref Aleo 2019): +VE
- Ro2 Hybrid HRM Score ([17]; In vitro Assay, ref Aleo 2019): +VE
- Partition Hybrid HRM Score ≥4, Aleo (2019) [17, 22]: +VE (Partition Hybrid HRM Score ≥4)
- Partition Hybrid HRM Score ≥8, Aleo (2019) [17, 22]: +VE (Partition Hybrid HRM Score ≥8)
- Rule of Two hybrid HRM Score ≥3, Aleo (2019) [17, 22]: +VE (Rule of Two hybrid HRM Score ≥3)
- Rule of Two hybrid HRM Score ≥8, Aleo (2019) [17, 22]: +VE (Rule of Two hybrid HRM Score ≥8)
